Test results published in US20020028851A1, “Guanylhydrazones and their use to treat inflammatory conditions” (priority 1994, published 2002).

Assays:
[1] = test system: Nude mice (nu/nu), AtT-20 cells; experiment: Tumor-associated cachexia model, urinary urea loss; format: in vivo; conditions: for URINARY UREA LOSS / URINARY UREA LOSS, Sum totals: 0.4 mg/Kg daily i.p.; for URINARY UREA LOSS, Sum totals: sum of listed days
Protocol: An animal model of tumor-associated protein catabolic illness (cachexia) was employed to directly test the efficacy of Compound No. 14 in reducing whole-body nitrogen losses. Tumors were induced in the appropriate groups by intramuscular inoculation with 15×10^6 AtT-20 cells; this model is known to cause a protein catabolic illness characterized by the consumption of normal quantities of food, but 20% net whole-body losses of protein within 14 days. Compound No. 14 was administered to the “treated” groups in a daily dose of 0.4 mg/Kg, intraperitoneal. Nude mice (nu/nu) were housed in metabolic cages (4 per cage) to facilitate collection of daily urine samples for 14 days. Food intake was measured daily. There were four groups of animals: 1) untreated, non-tumor bearing controls; 2) untreated, tumor-bearing; 3) treated, tumor-bearing, and 4) treated, non-tumor-bearing. Urine was collected and urinary urea losses quantified.

[2] = test system: Endothelial Derived Relaxing Factor (EDRF) activity; experiment: Acetylcholine-induced hypotensive (EDRF) response; format: in vivo, rats; conditions: 50 mg/Kg single intra-arterial dose; blood pressure 30 sec after ACh
Protocol: Female Sprague-Dawley rats (225-250 g body weight) were anesthetized with nembutal (50 mg/Kg, i.p.), a tracheostomy tube was inserted, and the carotid artery and jugular vein cannulated by standard methods using polyethylene tubing (PE 50). Tracey, K. J., et al., 1986, SCIENCE 234, 470-474. Blood pressure was recorded continuously with a pressure transducer and recorder (Model RS-3200, Gould Inc.,). In the experiment shown here, animals received a single sterile intra-arterial dose of either N^G-methyl-L-arginine (NMA; Sigma; 10 mg/Kg), Compound No. 14 (50 mg/Kg), or vehicle (0.4 ml). Acetylcholine (ACh) diluted in LPS-free sterile water was administered via the jugular vein cannula at the doses indicated. The solutions were diluted to produce a constant injectable volume of 1 ml/Kg body weight.
The hypotensive (EDRF) response was measured as the decline in mean arterial blood pressure recorded 30 sec after administration of ACh. The number of animals studied at each dose of acetylcholine was 4-6 for each experimental condition; data are expressed as the mean +s.e.m.

BALB/c mice = experiment: LPS-induced lethality (endotoxic shock); format: in vivo
Protocol: Experiments were undertaken to evaluate the effects of Compound No. 14 in preventing the lethal toxicity of lipopolysaccharide (LPS). LPS was administered to induce 50% lethality within 72 hr in BALB/c mice (FIG. 10). BALB/c mice (19-21 g) were given LPS (E. coli 0111:B4; Sigma) in a dose of 13.75 mg/Kg by intraperitoneal injection (0.2 ml/mouse). Stock LPS solutions (10 mg/ml) were sonicated initially for 20 min, diluted in LPS-free water (1.375 mg/ml), then sonicated again for 10 min immediately prior to injection. Compound No. 14 (1 mg/Kg, i.p.) was administered 1.5 hr before LPS. Compound No. 14 injectate was free of LPS as measured by quantitative chromogenic Limulus amebocyte lysate test (BioWhittaker, Walkersville, Md.). Data points are from two groups consisting of 10 mice per group.
Data were subjected to statistical analysis using the z test for independent proportions. The difference bewteen control and Compound No. 14 is significant (one-tailed p value<0.05; z=1.95).

MIP-1β = experiment: Cytokine production by LPS/γIFN-stimulated human PBMC: MIP-1β; format: cell-based; conditions: γIFN+LPS, 18 hr
Text: Similar results concerning a variety of cytokines in addition to TNF, e.g., IL-6 and Macrophage Inflammatory Proteins-1α and -1β (MIP-1α and MIP-1β) were obtained using human peripheral blood as a source of monocytes. Human peripheral blood mononuclear cells (PBMC) were isolated using “FICOLL®”-based methods and plated in standard 6-well culture plates at a concentration of 10^6/well and allowed to adhere for from 2 hr to overnight whereupon non-adherent cells were washed out and the medium was then replaced with medium containing the compound to be tested. One hour later, the medium was supplemented so as to contain 25 U/ml γIFN and 0.1 μg/ml LPS and the cultures incubated a further 18 hr. The medium was then collected, and cell debris removed by centrifugation. This conditioned supernatant was then assayed for the presence of cytokines using the standard methodologies of L929 cell cytotoxicity bioassay and immunoassay (ELISA).

[3] = over the 14 day period, per mouse

**Q.** CC(=NNC(=N)N)c1cc(NC(=O)CCCCCCCCC(=O)Nc2cc(C(C)=NNC(=N)N)cc(C(C)=NNC(=N)N)c2)cc(C(C)=NNC(=N)N)c1.Cl.Cl.Cl.Cl [Compound 14, N,N′-bis(3,5-diacetyl-phenyl)decanediamide tetrakis(amidinohydrazone) tetrahydrochloride] was tested. Which “URINARY UREA LOSS” value ([1]; Controls, Treated (non-tumor-bearing), day 2) did it give?
**A.** 193 mg/group

**Q.** What about the “URINARY UREA LOSS” value ([1]; Controls, Treated (non-tumor-bearing), day 4) of the same compound?
**A.** 285 mg/group

**Q.** And the “URINARY UREA LOSS” value ([1]; Controls, Treated (non-tumor-bearing), day 6)?
**A.** 397 mg/group

**Q.** And the “URINARY UREA LOSS” value ([1]; Controls, Treated (non-tumor-bearing), day 7)?
**A.** 247 mg/group

**Q.** What about the “URINARY UREA LOSS” value ([1]; Controls, Treated (non-tumor-bearing), day 8) of the same compound?
**A.** 257 mg/group

**Q.** What about the “URINARY UREA LOSS” value ([1]; Controls, Treated (non-tumor-bearing), day 10) of the same compound?
**A.** 216 mg/group

**Q.** What about the “URINARY UREA LOSS” value ([1]; Controls, Treated (non-tumor-bearing), day 11) of the same compound?
**A.** 239 mg/group

**Q.** And the “URINARY UREA LOSS” value ([1]; Controls, Treated (non-tumor-bearing), day 12)?
**A.** 203 mg/group

**Q.** And the “URINARY UREA LOSS” value ([1]; Controls, Treated (non-tumor-bearing), day 13)?
**A.** 242 mg/group

**Q.** And the “URINARY UREA LOSS” value ([1]; Controls, Treated (non-tumor-bearing), day 14)?
**A.** 157 mg/group

**Q.** What about the “URINARY UREA LOSS, Sum totals” value ([1]; Controls, Treated (non-tumor-bearing)) of the same compound?
**A.** 2436 mg/group

**Q.** What about the “URINARY UREA LOSS” value ([1]; Tumor, Treated, day 2 after tumor) of the same compound?
**A.** 195 mg/group

**Q.** And the “URINARY UREA LOSS” value ([1]; Tumor, Treated, day 4 after tumor)?
**A.** 368 mg/group

**Q.** And the “URINARY UREA LOSS” value ([1]; Tumor, Treated, day 6 after tumor)?
**A.** 295 mg/group

**Q.** And the “URINARY UREA LOSS” value ([1]; Tumor, Treated, day 7 after tumor)?
**A.** 312 mg/group

**Q.** What about the “URINARY UREA LOSS” value ([1]; Tumor, Treated, day 8 after tumor) of the same compound?
**A.** 275 mg/group

**Q.** What about the “URINARY UREA LOSS” value ([1]; Tumor, Treated, day 10 after tumor) of the same compound?
**A.** 206 mg/group

**Q.** What about the “URINARY UREA LOSS” value ([1]; Tumor, Treated, day 11 after tumor) of the same compound?
**A.** 219 mg/group

**Q.** What about the “URINARY UREA LOSS” value ([1]; Tumor, Treated, day 12 after tumor) of the same compound?
**A.** 115 mg/group

**Q.** What about the “URINARY UREA LOSS” value ([1]; Tumor, Treated, day 13 after tumor) of the same compound?
**A.** 201 mg/group

**Q.** What about the “URINARY UREA LOSS” value ([1]; Tumor, Treated, day 14 after tumor) of the same compound?
**A.** 187 mg/group

**Q.** What about the “URINARY UREA LOSS, Sum totals” value ([1]; Tumor, Treated) of the same compound?
**A.** 2373 mg/group

**Q.** And the “loss of urea prevented” value ([1]; over the 14 day period)?
**A.** approximately 200 mg urea/mouse

**Q.** And the “nitrogen retained (equivalent of urea loss prevented)” value [1, 3]?
**A.** approximately 100 mg

**Q.** What about the “protein retained (equivalent of urea loss prevented)” value [1, 3] of the same compound?
**A.** ~625 mg

**Q.** And the “wet muscle mass retained (equivalent of urea loss prevented)” value [1, 3]?
**A.** ~2.7 g

**Q.** And the “acetylcholine-induced EDRF activity in vivo” value [2]?
**A.** did not suppress

**Q.** And the “Diarrhea after LPS” value (BALB/c mice; 1 mg/Kg i.p. 1.5 hr before LPS)?
**A.** not suppressed

**Q.** And the “visible signs of LPS toxicity” value (BALB/c mice; 1 mg/Kg i.p. 1.5 hr before LPS)?
**A.** markedly suppressed

**Q.** And the LPS-induced lethality (BALB/c mice; 1 mg/Kg i.p. 1.5 hr before LPS 13.75 mg/Kg i.p., 72 hr, p<0.05)?
**A.** reduced lethality

**Q.** What about the “gross signs of systemic toxicity” value (BALB/c mice; animals receiving compound alone, 1 mg/Kg i.p.) of the same compound?
**A.** no gross signs of systemic toxicity

**Q.** And the “concentration that effectively inhibited production of MIP-1β” value (MIP-1β)?
**A.** 10 to 20 µM
